Test results published in paper PMC13070491, “Single-nucleus transcriptomics, pharmacokinetics, and pharmacodynamics of CDK4/6 and mTOR inhibition in a Phase 0/1 trial of recurrent high-grade glioma” (Neuro-Oncology, 2025).
Several values for one entry are separate records, joined by “and”; a condition that tells them apart may be missing. Equal entries are not always repeated.

Tests used:
[1] = Plasma pharmacokinetic parameters (LC-MS/MS); details: plasma; for AUC(0-t) / Cmax / half-life / Tmax: human, oral; for AUC(0-t): Total Ribociclib AUClast; for Cmax: Total Ribociclib Cmax
Description: Pharmacokinetic evaluation was conducted as previously described[8] using a validated liquid chromatography with tandem mass spectrometry (LC-MS/MS) method.[16] […] CSF samples were intraoperatively collected.

Ki-67 = assay: IHC of tumor tissue, percentage of Ki-67 positive cells, archival vs Phase 0 surgical sample; format: in vivo, human
pRb = assay: IHC of tumor tissue, pRb positive cells, archival vs Phase 0 surgical sample; format: in vivo, human; details: IDH-wildtype patients n = 20; paired t-test P = .25; 5 days ribociclib + everolimus
p4EBP1 = assay: IHC of tumor tissue, p4EBP1 positive cells; format: in vivo, human; details: 5 days ribociclib + everolimus; paired t-test P > .05
Description: Everolimus pharmacodynamic biomarkers were assessed using IHC with the following antibodies: anti-p4EBP1 (Cell Signaling Technology; #2855, 1:500); anti-pS6 ribosomal protein (Cell Signaling -Technology; #4858, 1:100). IHC staining was performed using the BOND RX automated system (Leica Biosystems) as previously described.[8] Stained slides were imaged on a Leica Versa microscope and analyzed with Aperio Image software. Percentage of stain-positive cells was quantified from at least 6 randomly selected regions of interest within the tumor as assessed by a board-certified neuropathologist.

[2] = tested on: phosphorylated Rb protein in GB126, GB86 and GB239 glioma stem cell lines; assay: Determination of ribociclib dose in vitro (phosphorylated Rb, Western blotting); format: cell-based, human; details: 5 days, tested 0.5, 1 and 5 μM
Description: Patient-derived glioma stem cell lines (GSCs; GB126, GB86, and GB239) were established from resected GBM tumor tissue. Cell lines were genetically profiled for mutations and copy number aberrations using the IvySeq custom gene panel. […] GB239 was derived from a tumor sample included in this Phase 0 trial (tumor sample: 100-0039). All human GSCs were cultured as described previously.[12]

GB126 = assay: Ribociclib-treated in vitro single-cell RNA sequencing, malignant state proportions; format: cell-based, human; details: ribociclib vs DMSO 5 days
Excerpt: (§1) Patient-derived glioma stem cell lines (GSCs; GB126, GB86, and GB239) were established from resected GBM tumor tissue. Cell lines were genetically profiled for mutations and copy number aberrations using the […] custom gene panel. All cell lines harbored high-level CDK4 amplifications among other alterations. […] The single-cell RNA sequencing data were then processed via cellranger count and Seurat. Briefly, cells were filtered out based on the following criteria: minimum number of genes detected >500 and <10 000 with a maximum percentage of mitochondrial genes set to 10%. Statistical assessment was made between the malignant proportions of each cell state using a 2-sided paired t-test.

GB239 = assay: as above; format: cell-based, human; details: ribociclib vs DMSO 5 days
Excerpt: as §1

GB86 = assay: as above; format: cell-based, human; details: ribociclib vs DMSO 5 days
Excerpt: as §1

[3] = Adverse events related to study treatment (CTCAE); format: in vivo, human
Description: Eligibility was determined based on previous clinical records, panel DNA sequencing, and IHC of archival tissue from a previous surgery (Figure 1, Supplementary Figure S2A).

[4] = 900 mg QD 5 days monotherapy; ref Tien A, Clin Cancer Res 2019; cited from earlier work
[5] = Dose Level 4: ribociclib 600mg QD 5 days + everolimus 50mg single dose, CTCAE grade 1
[6] = Dose Level 5: ribociclib 600mg QD 5 days + everolimus 60mg single dose, CTCAE grade 2

SMILES: CN(C)C(=O)c1cc2cnc(Nc3ccc(N4CCNCC4)cn3)nc2n1C1CCCC1 [Ribociclib, ribociclib]
- AUC(0-t) ([1]; 400 mg, Mean): 18.5 µM·h
- AUC(0-t) ([1]; 400 mg, Median): 13.8 µM·h
- Cmax ([1]; 400 mg, Median): 1.32 µM
- half-life ([1]; 400 mg, Total Ribociclib T1/2, plasma, Mean): 13.1 h
- half-life ([1]; 400 mg, Total Ribociclib T1/2, plasma, Median): 11.4 h
- half-life ([1]; 400 mg, Unbound Ribociclib T1/2, plasma, Mean): 11.3 h
- half-life ([1]; 400 mg, Unbound Ribociclib T1/2, plasma, Median): 11.2 h
- half-life ([1]; 400 mg, Unbound Ribociclib T1/2, plasma, individual patients): 7.04 h
- Tmax ([1]; 400 mg, Unbound Ribociclib Tmax, Mean): 2.65 h
- AUC(0-t) ([1]; 600 mg, Mean): 28.4 µM·h
- Cmax ([1]; 600 mg, Mean): 2.19 µM
- Cmax ([1]; 600 mg, Median): 1.81 µM
- half-life ([1]; 600 mg, Total Ribociclib T1/2, plasma, Mean): 17.3 h
- Tmax ([1]; 600 mg, Total Ribociclib Tmax, Mean): 3.23 h
- half-life ([1]; 600 mg, Unbound Ribociclib T1/2, plasma, Median): 11.5 h
- Tmax ([1]; 600 mg, Unbound Ribociclib Tmax, Mean): 4.76 h
- Total Ribociclib CL/F ([1]; 400 mg, Mean): 62.22 L/h
- Total Ribociclib Tmax ([1]; 400 mg, Mean): 3.00 h
- Unbound Ribociclib Cmax ([1]; 400 mg, Mean): 0.29 µM
- Total Ribociclib CL/F ([1]; 400 mg, Median): 66.79 L/h
- Unbound Ribociclib Cmax ([1]; 400 mg, Median): 0.23 µM
- Total Ribociclib CL/F ([1]; 400 mg, individual patients): 65.30 L/h and 28.56 L/h and 68.28 L/h and 29.74 L/h and 83.61 L/h and 97.80 L/h
- Unbound Ribociclib Cmax ([1]; 400 mg, individual patients): 0.31 µM and 0.69 µM and 0.15 µM and 0.26 µM and 0.12 µM and 0.19 µM
- Unbound Ribociclib T1/2 ([1]; 400 mg, individual patients): 15.62 h and 13.50 h and 9.01 h
- Total Ribociclib CL/F ([1]; 600 mg, Mean): 59.77 L/h
- Unbound Ribociclib Cmax ([1]; 600 mg, Mean): 0.32 µM
- Unbound Ribociclib T1/2 ([1]; 600 mg, Mean): 15.49 h
- Total Ribociclib CL/F ([1]; 600 mg, Median): 55.14 L/h
- Unbound Ribociclib Cmax ([1]; 600 mg, Median): 0.28 µM
- Total Ribociclib CL/F ([1]; 600 mg, individual patients): 22.31 L/h and 79.68 L/h and 49.86 L/h and 52.45 L/h and 57.05 L/h and 59.00 L/h and 104.11 L/h and 29.22 L/h and 48.20 L/h and 71.59 L/h and 35.82 L/h and 156.41 L/h and 47.05 L/h and 55.14 L/h and 66.74 L/h and 66.55 L/h and 50.38 L/h and 59.19 L/h and 24.80 L/h
- Total Ribociclib Tmax ([1]; 600 mg, individual patients): 3.98 h and 1.67 h and 4.00 h
- Unbound Ribociclib Cmax ([1]; 600 mg, individual patients): 0.58 µM and 0.28 µM and 0.37 µM and 0.29 µM and 0.26 µM and 0.34 µM and 0.31 µM and 0.73 µM and 0.30 µM and 0.22 µM and 0.38 µM and 0.09 µM and 0.21 µM and 0.18 µM and 0.24 µM and 0.23 µM and 0.47 µM
- Unbound Ribociclib T1/2 ([1]; 600 mg, individual patients): 14.45 h and 9.00 h and 8.65 h and 15.15 h and 15.94 h and 42.32 h
- change in proliferative Ki-67 marker, surgical samples vs matched archival tissue (Ki-67; IDH-wildtype patients n = 20, paired t-test P = .02, 5 days ribociclib + everolimus): significant decrease
- median decrease in Ki-67 (Ki-67; ribociclib 400 mg): 2.93%
- median decrease in Ki-67 (Ki-67; ribociclib 600 mg): 8.94%
- change in phosphorylated Rb, surgical samples vs matched archival tissue (pRb): nonsignificant decrease
- mTOR pathway activity as quantified by p4EBP1, surgical specimen vs archival tissue (p4EBP1): elevated but not significantly different
- dose per cell line that achieved a 50% inhibition of pRb [2]: 0.5-5 µM
- MES-like malignant state proportion (GB126): increase
- AC-like malignant state proportion (GB126; paired t-test P = 6.6E-3): increase
- change in cycling cells (GB126; paired t-test P = 8.7E-4): decrease
- change in cycling cells (GB239; paired t-test P = 5.4E-4): decrease
- AC-like malignant state proportion (GB239; paired t-test P = .03): increase
- change in cycling cells (GB86; paired t-test P = .04): decrease
- AC-like malignant state proportion (GB86; paired t-test P = .06): increase
- Dizziness, No. Patients Affected [3, 5]: 1
- Photophobia, No. Patients Affected [3, 5]: 1
- Platelet count decreased, No. Patients Affected ([3]; Dose Level 5: ribociclib 600mg QD 5 days + everolimus 60mg single dose, CTCAE grade 1): 1
- Nausea, No. Patients Affected [3, 6]: 1
- Pancytopenia (serious adverse event), No. Patients Affected [3, 6]: 1
- Electrocardiogram QT prolonged, No. Patients Affected ([3]; Dose Level 6: ribociclib 600mg QD 5 days + everolimus 70mg single dose, CTCAE grade 1): 1
- Total Ribociclib concentration, CSF, Maximum [4]: 838 nM
- Total Ribociclib concentration, CSF, Median [4]: 267 nM
- Total Ribociclib concentration, CSF, Minimum [4]: 43 nM
- Total Ribociclib concentration, Enhancing tumor, Maximum [4]: 71.76 µM
- Total Ribociclib concentration, Enhancing tumor, Median [4]: 29.252 µM
- Total Ribociclib concentration, Enhancing tumor, Minimum [4]: 6.586 µM
- Total Ribociclib concentration, Non-enhancing tumor, Maximum [4]: 31.424 µM
- Total Ribociclib concentration, Non-enhancing tumor, Median [4]: 12.176 µM
- Total Ribociclib concentration, Non-enhancing tumor, Minimum [4]: 452 nM
- Unbound Ribociclib concentration, CSF, Maximum [4]: 645 nM
- Unbound Ribociclib concentration, CSF, Median [4]: 152 nM
- Unbound Ribociclib concentration, CSF, Minimum [4]: 18 nM
- Unbound Ribociclib concentration, Enhancing tumor, Maximum [4]: 4.743 µM
- Unbound Ribociclib concentration, Enhancing tumor, Median [4]: 1644 nM
- Unbound Ribociclib concentration, Enhancing tumor, Minimum [4]: 307 nM
- Unbound Ribociclib concentration, Non-enhancing tumor, Maximum [4]: 1295 nM
- Unbound Ribociclib concentration, Non-enhancing tumor, Median [4]: 482 nM
